Results from patent US20220281848A1, “PYRAZOLE-SUBSTITUTED PYRROLIDINONES AS HERBICIDES” (FMC Corporation, priority 2019, published 2022).

What was measured:
Format in all cases: in vivo
wheat = experiment: Test D pre-emergence, wheat seed treated with a herbicide safener; conditions: 100=total damage, 0=no damage
Description: (§1) A formulation containing 50 g/L of the test chemical was prepared by dissolving the active ingredient in a mixture of organic solvents and emulsifier, details of which are provided in the table. This formulation was then mixed with a small, variable amount of acetone to aid dissolution, before addition of a 0.2% v/v aqueous solution of an adjuvant, as the aqueous diluent, to form an aqueous spray solution which contains a predetermined concentration of the active ingredient.
(§2) This aqueous spray solution was then sprayed onto plants including maize and wheat that had been seed treated with a herbicide safener, after one day's cultivation (for pre-emergence) or after about 12 days' cultivation (for post-emergence). The plants were grown from seeds sown in standard soil, placed in a glasshouse under controlled conditions (at 24/18° C. or 20/16° C., day/night; 16 h light; 65% humidity). After spray application the plants were then grown in a glasshouse under the same conditions and watered twice daily. After 15 d for post-emergence and 20 DAA for pre-emergence the test was evaluated (100=total damage to plant; 0=no damage to plant).

[1] = tested on: giant foxtail (Setaria faberi, SETFA); experiment: Test A pre-emergence, giant foxtail; conditions: after 13 d
In short: (§3)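 Each compound is applied pre-emergence at 15.625, 62.5 or 250 g/ha, one day after seeds are sown in standard soil. Plants are then grown in a glasshouse at 24/16° C. with 14 h light and 65% humidity, and injury is scored 0–100 at 13 d.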

[2] = tested on: giant foxtail (Setaria faberi, SETFA); experiment: Test A post-emergence, giant foxtail; conditions: after 13 d
In short: (§4)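 Visual damage at 13 d after treatment, rated from 0 (no damage) to 100 (total damage). Eight-day-old pot-grown plants had been sprayed with 15.625, 62.5 or 250 g/ha of compound in aqueous acetone (50:50) containing 0.5% Tween 20.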

[3] = tested on: barnyardgrass (Echinochloa crus-galli, ECHCG); experiment: Test A post-emergence, barnyardgrass; conditions: after 13 d
In short: as §4

[4] = tested on: velvetleaf (Abutilon theophrasti, ABUTH); experiment: Test A post-emergence, velvetleaf; conditions: after 13 d
In short: as §4

corn (Zea mays, ZEAMX) = experiment: Test A pre-emergence, corn; conditions: after 13 d
In short: as §3

[5] = tested on: redroot pigweed (Amaranthus retroflexus, AMARE); experiment: Test A pre-emergence, redroot pigweed; conditions: after 13 d
In short: as §3

maize = experiment: Test D pre-emergence, maize seed treated with a herbicide safener; conditions: ZEAMX, preemergent, 20 DAA
Description: as §1, §2

[6] = tested on: redroot pigweed (Amaranthus retroflexus, AMARE); experiment: Test A post-emergence, redroot pigweed; conditions: after 13 d
In short: as §4

[7] = tested on: velvetleaf (Abutilon theophrasti, ABUTH); experiment: Test A pre-emergence, velvetleaf; conditions: after 13 d
In short: as §3

COc1c(F)cccc1NC(=O)C1C(=O)N(C)CC1c1cc(C(F)(F)F)n(C)n1 (racemic) [Compound 18]
damage to plant, TRZAW (wheat; rate 15, 20 DAA): 0 | damage to plant, TRZAW (wheat; rate 30, 20 DAA): 0 | damage to plant, TRZAW (wheat; rate 60, 20 DAA): 0 | damage to plant, TRZAW (wheat; rate 130, 20 DAA): 0 | damage to plant, TRZAW (wheat; rate 250, 20 DAA): 20 | damage to plant, TRZAW (wheat; rate 500, 20 DAA): 30 | damage to plant (100=total damage; 0=no damage) SETFA ([1]; Pre-Emergence at 15.625 g/ha): 90 | damage to plant (100=total damage; 0=no damage) SETFA ([1]; Pre-Emergence at 62.5 g/ha): 90 | damage to plant (100=total damage; 0=no damage) SETFA ([1]; Pre-Emergence at 250 g/ha): 90 | damage to plant (100=total damage; 0=no damage) SETFA ([2]; Post-Emergence at 15.625 g/ha): 50 | damage to plant (100=total damage; 0=no damage) SETFA ([2]; Post-Emergence at 62.5 g/ha): 70 | damage to plant (100=total damage; 0=no damage) SETFA ([2]; Post-Emergence at 250 g/ha): 70 | damage to plant (100=total damage; 0=no damage) ECHCG ([3]; Post-Emergence at 15.625 g/ha): 50 | damage to plant (100=total damage; 0=no damage) ECHCG ([3]; Post-Emergence at 62.5 g/ha): 70 | damage to plant (100=total damage; 0=no damage) ECHCG ([3]; Post-Emergence at 250 g/ha): 70 | damage to plant (100=total damage; 0=no damage) ABUTH ([4]; Post-Emergence at 15.625 g/ha): 0 | damage to plant (100=total damage; 0=no damage) ABUTH ([4]; Post-Emergence at 62.5 g/ha): 0 | damage to plant (100=total damage; 0=no damage) ABUTH ([4]; Post-Emergence at 250 g/ha): 0 | damage to plant (100=total damage; 0=no damage) ZEAMX (corn (Zea mays, ZEAMX); Pre-Emergence at 15.625 g/ha): 30 | damage to plant (100=total damage; 0=no damage) ZEAMX (corn (Zea mays, ZEAMX); Pre-Emergence at 62.5 g/ha): 60 | damage to plant (100=total damage; 0=no damage) ZEAMX (corn (Zea mays, ZEAMX); Pre-Emergence at 250 g/ha): 80 | damage to plant (100=total damage; 0=no damage) AMARE ([5]; Pre-Emergence at 15.625 g/ha): 0 | damage to plant (100=total damage; 0=no damage) AMARE ([5]; Pre-Emergence at 62.5 g/ha): 0 | damage to plant (100=total damage; 0=no damage) AMARE ([5]; Pre-Emergence at 250 g/ha): 0 | damage to plant (100=total damage to plant; 0=no damage to plant), ZEAMX (maize; rate 15): 0 | damage to plant (100=total damage to plant; 0=no damage to plant), ZEAMX (maize; rate 30): 0 | damage to plant (100=total damage to plant; 0=no damage to plant), ZEAMX (maize; rate 60): 0 | damage to plant (100=total damage to plant; 0=no damage to plant), ZEAMX (maize; rate 130): 0 | damage to plant (100=total damage to plant; 0=no damage to plant), ZEAMX (maize; rate 250): 0 | damage to plant (100=total damage to plant; 0=no damage to plant), ZEAMX (maize; rate 500): 0 | damage to plant (100=total damage; 0=no damage) AMARE ([6]; Post-Emergence at 15.625 g/ha): 0 | damage to plant (100=total damage; 0=no damage) AMARE ([6]; Post-Emergence at 62.5 g/ha): 0 | damage to plant (100=total damage; 0=no damage) AMARE ([6]; Post-Emergence at 250 g/ha): 0 | damage to plant (100=total damage; 0=no damage) ABUTH ([7]; Pre-Emergence at 15.625 g/ha): 0 | damage to plant (100=total damage; 0=no damage) ABUTH ([7]; Pre-Emergence at 62.5 g/ha): 0 | damage to plant (100=total damage; 0=no damage) ABUTH ([7]; Pre-Emergence at 250 g/ha): 0
